Where a SMILES comes first, the peptide text is derived from it. Bridges are numbered along the chain shown (N, C = ends). [ ]: non-standard residue; d: D form. The star is where a group is joined. ξ: configuration not given here. Phe(3-CF3) = N[C@@H](Cc1cccc(C(F)(F)F)c1)C(=O)O; Phe(4-COOH) = N[C@@H](Cc1ccc(C(=O)O)cc1)C(=O)O; Bip = N[C@@H](Cc1ccc(-c2ccccc2)cc1)C(=O)O; Phe(3-Me) = Cc1cccc(C[C@H](N)C(=O)O)c1; Abu(3S-NH2) = C[C@H](N)[C@H](N)C(=O)O; NH(CH2)12COOH = O=C(O)CCCCCCCCCCCCN*; Val(3-OH) = CC(C)(O)[C@H](N)C(=O)O; hArg = N=C(N)NCCCC[C@H](N)C(=O)O; 4Pal = N[C@@H](Cc1ccncc1)C(=O)O; Cha = N[C@@H](CC1CCCCC1)C(=O)O; Cit = NC(=O)NCCC[C@H](N)C(=O)O; Ile(3ξ) = CCC(C)[C@H](N)C(=O)O; Thr(3ξ) = CC(O)[C@H](N)C(=O)O; NMeNle = CCCC[C@H](NC)C(=O)O; 12Ado = NCCCCCCCCCCCC(=O)O; Carboxymethyl = O=C(O)C*; NMeA = CN[C@@H](C)C(=O)O; Orn = NCCC[C@H](N)C(=O)O; Aun = NCCCCCCCCCCC(=O)O; Dab = NCC[C@H](N)C(=O)O; Abu = CC[C@H](N)C(=O)O; Dap = NC[C@H](N)C(=O)O; AEEA = NCCOCCOCC(=O)O
Each molecule was assayed against T1, PD-1/PD-L1 interaction (PE-labeled human PD-L1-Ig binding to Jurkat cell line over-expressing human PD-1) (Homo sapiens, UniProt Q15116) (assay: Jurkat-PD-1 Cell Binding High-Content Screening Assay (CBA)). Conditions: Jurkat-hPD-1 cells, PE-labeled PD-L1-Ig 20 nM final; read-out: Jurkat HPD1 PDL1 IC50.
T1 construct: expressed in transfected cells; host or cells: Jurkat
T1 sequence (Q15116 25-288): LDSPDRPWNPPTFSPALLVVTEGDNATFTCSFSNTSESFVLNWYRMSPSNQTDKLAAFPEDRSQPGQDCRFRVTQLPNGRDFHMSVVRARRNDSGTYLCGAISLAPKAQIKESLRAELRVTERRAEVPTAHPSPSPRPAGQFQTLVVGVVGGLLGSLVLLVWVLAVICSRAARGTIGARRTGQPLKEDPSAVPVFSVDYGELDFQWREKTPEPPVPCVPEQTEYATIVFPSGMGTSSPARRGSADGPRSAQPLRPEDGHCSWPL
Method in brief: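 Cells 8×10^3/well, DMEM + 10% FCS; cpd 2 h, 37 °C; PE–PD-L1-Ig 20 nM final, 1 h; PFA fix + Hoechst 33342, 3× dPBS wash; high-content imager.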

IC50 | SMILES
17 nM | CC[C@@H]1NC(=O)[C@H](C(C)C)NC(=O)[C@H](CC2CCCCC2)NC(=O)[C@H](CCN)NC(=O)[C@@H](CC(C)C)NC(=O)[C@H](C)N(C)C(=O)[C@H](C(C)C)NC(=O)[C@H](Cc2ccc(-c3ccccc3)cc2)NC(=O)[C@H](CC(C)C)NC(=O)[C@H](Cc2c[nH]c3ccccc23)NC(=O)[C@H](CC(=O)O)NC(=O)[C@H](Cc2ccc(OCC(=O)O)cc2)NC(=O)[C@H](CCCCNC(=N)N)NC(=O)CSC[C@@H](C(=O)NCC(=O)NCCOCCOCC(=O)N[C@@H](CCCN)C(=O)NCCCCCCCCCCCC(=O)O)NC1=O [Example 2124] ({CH2CO}-[hArg]Y(Carboxymethyl)DWL[Bip]V[NMeA][dL][Dab][Cha]V[Abu]CG[AEEA][Orn][12Ado]-OH; thioether N-14)
25.8 nM | CCC(C)[C@@H]1NC(=O)[C@H](Cc2ccc(-c3ccccc3)cc2)NC(=O)[C@H](C(C)C)NC(=O)[C@H](Cc2c[nH]c3ccccc23)NC(=O)[C@H](CC(=O)O)NC(=O)[C@H](Cc2ccc(O)cc2)NC(=O)[C@H](C(C)O)NC(=O)CSC[C@@H](C(=O)N[C@@H](CC(N)=O)C(=O)NCCOCCOCC(=O)NCCCCCCCCCCC(=O)O)NC(=O)[C@H](CO)NC(=O)[C@H](C(C)C)NC(=O)[C@H](CC(C)C)NC(=O)[C@H](CCN)NC(=O)[C@@H](CC(C)C)NC(=O)[C@H](C)N(C)C1=O (stereo partly drawn) [Example 2050] ({CH2CO}-[Thr(3ξ)]YDWV[Bip][Ile(3ξ)][NMeA][dL][Dab]LVSCN[AEEA][Aun]-OH; thioether N-14)
25.9 nM | CC(C)C[C@@H]1NC(=O)[C@H](Cc2c[nH]c3ccccc23)NC(=O)[C@H](CC(=O)O)NC(=O)[C@H](Cc2ccc(OCC(=O)O)cc2)NC(=O)[C@H](CCCCNC(=N)N)NC(=O)CSC[C@@H](C(=O)N[C@@H](CCCN)C(=O)NCCOCCOCC(=O)NCCCCCCCCCCC(=O)O)NC(=O)[C@H](CCCNC(N)=O)NC(=O)[C@H](C(C)C)NC(=O)[C@H](CC2CCCCC2)NC(=O)[C@H](CN)NC(=O)[C@@H](CC(C)C)NC(=O)[C@H](C)N(C)C(=O)[C@H](C(C)C)NC(=O)[C@H](Cc2ccc(-c3ccccc3)cc2)NC1=O [Example 2177] ({CH2CO}-[hArg]Y(Carboxymethyl)DWL[Bip]V[NMeA][dL][Dap][Cha]V[Cit]C[Orn][AEEA][Aun]-OH; thioether N-14)
10.3 nM | CC(=O)NCCCC[C@@H]1NC(=O)[C@H](Cc2ccc(-c3ccccc3)cc2)NC(=O)[C@H](C(C)C)NC(=O)[C@H](Cc2cccc(C)c2)NC(=O)[C@H](CC(=O)O)NC(=O)[C@H](Cc2ccc(C(=O)O)cc2)NC(=O)[C@H](Cc2ccc(OCC(=O)O)cc2)NC(=O)CSC[C@@H](C(=O)NCCOCCOCC(=O)NCCCCCCCCCCC(=O)O)NC(=O)[C@H](CCCNC(N)=O)NC(=O)[C@H](C(C)C)NC(=O)[C@H](CC2CCCCC2)NC(=O)[C@H](CCN)NC(=O)[C@@H](CC(C)C)NC(=O)[C@H](C)N(C)C1=O [Example 2295] ({CH2CO}-Y(Carboxymethyl)[Phe(4-COOH)]D[Phe(3-Me)]V[Bip]K(Ac)[NMeA][dL][Dab][Cha]V[Cit]C[AEEA][Aun]-OH; thioether N-14)

Further lines, the molecule ahead of its results:

SMILES | IC50
CC(C)C[C@H]1NC(=O)[C@H](C)N(C)C(=O)[C@H](Cc2ccc(OCC(=O)O)cc2)NC(=O)[C@H](Cc2ccc(-c3ccccc3)cc2)NC(=O)[C@H](Cc2ccc(OCC(=O)O)cc2)NC(=O)[C@H](Cc2c[nH]c3ccccc23)NC(=O)[C@H](CC(=O)O)NC(=O)[C@H](Cc2ccc(OCC(=O)O)cc2)NC(=O)[C@H]([C@@H](C)O)NC(=O)CSC[C@@H](C(=O)N[C@@H](CCN)C(=O)NCCOCCOCC(=O)NCCCCCCCCCCC(=O)O)NC(=O)[C@H](CCC(=O)O)NC(=O)[C@H](C(C)C)NC(=O)[C@H](CC2CCCCC2)NC(=O)[C@H](CC(N)=O)NC1=O [Example 1386] ({CH2CO}-TY(Carboxymethyl)DWY(Carboxymethyl)[Bip]Y(Carboxymethyl)[NMeA][dL]N[Cha]VEC[Dab][AEEA][Aun]-OH; thioether N-14) | 137 nM
CC(=O)NCCCC[C@@H]1NC(=O)[C@H](C(C)(C)O)NC(=O)[C@H](CC2CCCCC2)NC(=O)[C@H](CCN)NC(=O)[C@@H](CC(C)C)NC(=O)[C@H](C)N(C)C(=O)[C@H](CCC(N)=O)NC(=O)[C@H](Cc2ccc(-c3ccccc3)cc2)NC(=O)[C@H](Cc2ccc(C(=O)O)cc2)NC(=O)[C@H](Cc2cccc(C(F)(F)F)c2)NC(=O)[C@H](CC(=O)O)NC(=O)[C@H](Cc2ccc(OCC(=O)O)cc2)NC(=O)[C@H]([C@H](C)N)NC(=O)CSC[C@@H](C(=O)N[C@@H](CCN)C(=O)NCCCCCCCCCCCCC(=O)O)NC1=O [Example 1191] ({CH2CO}-[Abu(3S-NH2)]Y(Carboxymethyl)D[Phe(3-CF3)][Phe(4-COOH)][Bip]Q[NMeA][dL][Dab][Cha][Val(3-OH)]K(Ac)C[Dab]-{NH(CH2)12COOH}; thioether N-14) | 7.4 nM
CC(C)C[C@@H]1NC(=O)[C@H](Cc2c[nH]c3ccccc23)NC(=O)[C@H](CC(=O)O)NC(=O)[C@H](Cc2ccncc2)NC(=O)[C@H](Cc2ccc(OCC(=O)O)cc2)NC(=O)CSC[C@@H](C(=O)NCCOCCOCC(=O)NCCCCCCCCCCC(=O)O)NC(=O)[C@H](CO)NC(=O)[C@H](C(C)C)NC(=O)[C@H](CC2CCCCC2)NC(=O)[C@H](CCN)NC(=O)[C@@H](CC(C)C)NC(=O)[C@H](C)N(C)C(=O)[C@H](C(C)C)NC(=O)[C@H](Cc2ccc(-c3ccccc3)cc2)NC1=O [Example 1081] ({CH2CO}-Y(Carboxymethyl)[4Pal]DWL[Bip]V[NMeA][dL][Dab][Cha]VSC[AEEA][Aun]-OH; thioether N-14) | 10.1 nM
CC(=O)NCCCC[C@@H]1NC(=O)[C@H](Cc2ccc(-c3ccccc3)cc2)NC(=O)[C@H](CC(C)C)NC(=O)[C@H](Cc2c[nH]c3ccccc23)NC(=O)[C@H](CC(=O)O)NC(=O)[C@H](Cc2ccc(C(=O)O)cc2)NC(=O)[C@H](Cc2ccc(OCC(=O)O)cc2)NC(=O)CSC[C@@H](C(=O)NCCOCCOCC(=O)NCCCCCCCCCCC(=O)O)NC(=O)[C@H](CO)NC(=O)[C@H](C(C)C)NC(=O)[C@H](CC2CCCCC2)NC(=O)[C@H](CCN)NC(=O)[C@@H](CC(C)C)NC(=O)[C@H](C)N(C)C1=O [Example 2229] ({CH2CO}-Y(Carboxymethyl)[Phe(4-COOH)]DWL[Bip]K(Ac)[NMeA][dL][Dab][Cha]VSC[AEEA][Aun]-OH; thioether N-14) | 4.8 nM
CCC(C)[C@@H]1NC(=O)[C@H](Cc2ccc(-c3ccccc3)cc2)NC(=O)[C@H](CC(C)C)NC(=O)[C@H](Cc2cccc(C)c2)NC(=O)[C@H](CC(=O)O)NC(=O)[C@H](Cc2ccc(O)cc2)NC(=O)[C@H](Cc2ccccc2)NC(=O)CSC[C@@H](C(=O)N[C@@H](CN)C(=O)NCCCCCCCCCCC(=O)O)NC(=O)[C@H](CCCN)NC(=O)[C@H](C(C)C)NC(=O)[C@H](CC(C)C)NC(=O)[C@H](CCN)NC(=O)[C@@H](C)NC(=O)[C@H](C)N(C)C1=O (stereo partly shown) [Example 2199] ({CH2CO}-FYD[Phe(3-Me)]L[Bip][Ile(3ξ)][NMeA][dA][Dab]LV[Orn]C[Dap][Aun]-OH; thioether N-14) | 132 nM
CC(C)C[C@H]1NC(=O)[C@H](C)N(C)C(=O)[C@H](C(C)C)NC(=O)[C@H](Cc2ccc(-c3ccccc3)cc2)NC(=O)[C@H](C(C)C)NC(=O)[C@H](Cc2c[nH]c3ccccc23)NC(=O)[C@H](CC(=O)O)NC(=O)[C@H](Cc2ccc(OCC(=O)O)cc2)NC(=O)[C@H](CN)NC(=O)CSC[C@@H](C(=O)NCC(=O)NCCOCCOCC(=O)N[C@@H](CCCCN)C(=O)NCCCCCCCCCCC(=O)O)NC(=O)[C@H](CO)NC(=O)[C@H](C(C)C)NC(=O)[C@H](CC2CCCCC2)NC(=O)[C@H](CCN)NC1=O [Example 2085] ({CH2CO}-[Dap]Y(Carboxymethyl)DWV[Bip]V[NMeA][dL][Dab][Cha]VSCG[AEEA]K[Aun]-OH; thioether N-14) | 9.8 nM

Same assay, conditions: PE-labeled PD-L1-Ig 20 nM final, Jurkat-hPD-1 cells; read-out: Jurkat HPD1 PDL1 IC50

SMILES | IC50
Cc1cccc(C[C@@H]2NC(=O)[C@H](CC(=O)O)NC(=O)[C@H](Cc3ccc(OCC(=O)O)cc3)NC(=O)[C@H](CN)NC(=O)CSC[C@@H](C(=O)N[C@@H](CCN)C(=O)NCCCCCCCCCCC(=O)O)NC(=O)[C@H](CO)NC(=O)[C@H](Cc3cnc[nH]3)NC(=O)[C@H](CC3CCCCC3)NC(=O)[C@H](CCN)NC(=O)[C@@H](CC(C)C)NC(=O)[C@H](C)N(C)C(=O)[C@H](Cc3ccc(OCC(=O)O)cc3)NC(=O)[C@H](Cc3ccc(-c4ccccc4)cc3)NC(=O)[C@H](Cc3ccc(OCC(=O)O)cc3)NC2=O)c1 [Example 2427] ({CH2CO}-[Dap]Y(Carboxymethyl)D[Phe(3-Me)]Y(Carboxymethyl)[Bip]Y(Carboxymethyl)[NMeA][dL][Dab][Cha]HSC[Dab][Aun]-OH; thioether N-14) | 30.7 nM
Cc1cccc(C[C@@H]2NC(=O)[C@H](CC(=O)O)NC(=O)[C@H](Cc3ccc(C(=O)O)cc3)NC(=O)[C@H](Cc3ccncc3)NC(=O)CSC[C@@H](C(=O)NCCOCCOCC(=O)NCCCCCCCCCCC(=O)O)NC(=O)[C@H](Cc3cnc[nH]3)NC(=O)[C@H](C(C)(C)O)NC(=O)[C@H](CC3CCCCC3)NC(=O)[C@H](CCN)NC(=O)[C@@H](CC(C)C)NC(=O)[C@H](C)N(C)C(=O)[C@H](Cc3ccc(OCC(=O)O)cc3)NC(=O)[C@H](Cc3ccc(-c4ccccc4)cc3)NC(=O)[C@H](Cc3ccc(OCC(=O)O)cc3)NC2=O)c1 [Example 2464] ({CH2CO}-[4Pal][Phe(4-COOH)]D[Phe(3-Me)]Y(Carboxymethyl)[Bip]Y(Carboxymethyl)[NMeA][dL][Dab][Cha][Val(3-OH)]HC[AEEA][Aun]-OH; thioether N-14) | 46 nM
CCCC[C@H]1C(=O)N[C@@H](Cc2ccc(C(=O)O)cc2)C(=O)N[C@@H](CC(=O)O)C(=O)N[C@@H](Cc2cccc(C)c2)C(=O)N[C@@H](Cc2ccc(C(=O)O)cc2)C(=O)N[C@@H](Cc2ccc(-c3ccccc3)cc2)C(=O)N[C@@H](Cc2ccc(C(=O)O)cc2)C(=O)N(C)[C@@H](C)C(=O)N[C@H](CC(C)C)C(=O)N[C@@H](CCN)C(=O)N[C@@H](CC2CCCCC2)C(=O)N[C@@H](C(C)C)C(=O)N[C@@H](CCC(=O)O)C(=O)N[C@H](C(=O)N[C@@H](CCN)C(=O)NCCOCCOCC(=O)NCCCCCCCCCCC(=O)O)CSCC(=O)N1C [Example 2543] ({CH2CO}-[NMeNle][Phe(4-COOH)]D[Phe(3-Me)][Phe(4-COOH)][Bip][Phe(4-COOH)][NMeA][dL][Dab][Cha]VEC[Dab][AEEA][Aun]-OH; thioether N-14) | 32 nM
